How the values were obtained:
[1] = system: HT-29 cells; assay: Secondary (2°) and tertiary (3°) colonosphere assay, HT-29 (Screen 2); format: cell-based, human; details: no NSGM in 2° and 3° growth assays
Procedure: Secondary (2°) and Tertiary (3°) Colonosphere Assay. For secondary colonospheres, the 96-well plate of primary spheres was centrifuged at speed of 1000 rpm for 1 min and the supernatant was removed. Spheres that settled at the base of the plate were trypsinized with 20 μL/well and single cell suspension was prepared using vigorous mechanical dissociation. The numbers of viable cell were counted with 1:5 ratio of cell:trypan blue and then re-plated at 100 cells/[…] in SCM media in a low adhesion plate. No further treatment with NSGMs was performed. Numbers of spheres were counted as above on day 5. The same method was repeated for tertiary spheres.
The 11 sulfated NSGMs were then studied for their effect on 2° and 3° sphere formation (HT-29 and HCT-116) in Screen 2. By design, this screen reflects a test of true self-renewability of CSCs.^2,3 Single cell suspension obtained from primary spheres formed above was then cultured in the absence of NSGM.

[2] = system: CSC markers CD44, CD133, EpCAM, LGR5, CXCR-4; assay: Western blot of CSC markers in HT-29 spheroids; format: cell-based, human; details: HT-29 spheroids, 100 μM, Western blot densitometry vs vehicle
Procedure: Western Blotting Analysis. Western blot analysis was performed according to the standard protocol described in the literature. Briefly, HT-29 cells were plated in serum-free SCM in a low adhesion 6-well plate to obtain spheroids. Mature spheroids were treated on day 4 after plating, with vehicle or NSGMs for indicated time and cells were solubilized in lysis buffer (20 mM Na3PO4, 100 mM NaCl, 2 mM EDTA, 1% Nonidet P-40, 2.5 mM Na3VO4) containing protease (Roche) as well as phosphatase inhibitor cocktails (Sigma). Following centrifugation at 14,000 g for 15 min, the supernatant was used for Western blot analysis. In all analyses, protein concentration was determined by the Bio-Rad Protein Assay kit (Bio-Rad). Approximately 25-50 μg of protein was separated by polyacrylamide gel electrophoresis and was transferred to PVDF membrane (Bio-Rad). Blocking was done with 5% low fat milk powder for 1 hr followed by overnight incubation with primary antibody (dilution 1:1000): anti-CD44 (Cell Signaling), anti-EpCAM (Cell Signaling), anti-LGR5 (Origene), anti-CD133 ((Miltenyi Biotec), anti-CXCR4 (Abeam), anti-OCT4 (Cell Signaling), anti-BMI-1 (Millipore), anti-c-MYC (Millipore) and anti-CK20 (Abeam). This was followed by incubation with appropriate secondary antibody and protein bands were visualized using the enhanced chemiluminescence detection system and imaged with LAS-3000 Imaging System (FUJIFILM). Densitometry was determined by AIDA image analyzer software (Raytest) and results were calculated as relative intensity compared to control. All experiments were performed at least three times.

O=c1c(OS(=O)(=O)[O-])c(-c2ccc(OS(=O)(=O)[O-])c(OS(=O)(=O)[O-])c2)oc2cc(OS(=O)(=O)[O-])cc(OCCOc3cc(-c4oc5cc(OS(=O)(=O)[O-])cc(OCCOc6cc(OS(=O)(=O)[O-])cc7oc(-c8ccc(OS(=O)(=O)[O-])c(OS(=O)(=O)[O-])c8)c(OS(=O)(=O)[O-])c(=O)c67)c5c(=O)c4OS(=O)(=O)[O-])ccc3OS(=O)(=O)[O-])c12.[Na+].[Na+].[Na+].[Na+].[Na+].[Na+].[Na+].[Na+].[Na+].[Na+].[Na+] [G4.1]
Screen 2 outcome (2° and 3° spheroid growth inhibition) [1]: completely failed
reduction of expression of CSC markers (CD44, CD133, EpCAM, LGR5, CXCR-4) [2]: no effect

From patent publication US9850221B2, “Sulfated and unsulfated flavonoid oligomers as cancer therapeutics” (VIRGINIA COMMONWEALTH UNIVERSITY, priority 2013, dated 2017)
